Where “and” joins values, the source holds several entries; their conditions need not be identical. Identical values can stand only once. Counter-ions that a name gives are not always drawn.
Experiments:
Assay type in all cases: in vivo
[1] = Terbinafine hydrochloride content in the nail tip after the dome-shaped applicator was bonded to the nail; details: 0.15 mL of 1% solution, two days; for terbinafine hydrochloride content in the nail: nail tip, individual samples No. 1-6; for concentration at 2 days: nail (tip), topical, 1% solution, average of No. 1-6
Protocol: The dome-shaped applicator of the first type as shown in FIG. 2 (inside volume: 0.15 mL) was used. A commercially available instantaneous adhesive agent (cyanoacrylate-based adhesive) was applied to the flange of the applicator for bonding. The flange was then hermetically bonded to a surface of a nail. Using a syringe (inside volume: 0.5 mL), 0.15 mL of a solution having a terbinafine hydrochloride content of 1% was injected through the feed port. The feed port was then opened so that the inside and outside of the applicator was in fluid communication with each other. Thus, the inside air was released and the inside of the dome-shaped applicator reached ambient pressure (1.0 atm.). The applicator was maintained as such for two days and then removed from the nail. A part of the tip of the nail was cut and measured for the concentration of the terbinafine hydrochloride.
(§1) The dome-shaped applicator of the second type as shown in FIG. 8 (inside volume: 0.15 mL) was used. A commercially available instantaneous adhesive agent (cyanoacrylate-based adhesive) was applied to the flange of the applicator for bonding. The flange was then hermetically bonded to a surface of a nail. Using a syringe (inside volume: 0.5 mL), 0.15 mL of a solution having a terbinafine hydrochloride content of 1% was injected through the thick film portion near the opening of the dome-shaped applicator.
Because the dome-shaped applicator was hermetically bonded to the nail, the thin film portion in the upper part thereof inflated. […] The dome-shaped applicator was maintained in the hermetically bonded state for two days and then removed from the nail. A part of the tip of the nail was cut and measured for the concentration of the terbinafine hydrochloride.
as §1, with “the third” for “the second”, “FIG. 15” for “FIG. 8”, “0.15 ml.)” for “0.15 mL)”, “applicator. Because the dome-shaped applicator was hermetically bonded to the nail, the thin film portion in the upper part thereof was inverted and protruded as shown in FIG. 15(B).” for “applicator.”
The dome-shaped applicator was maintained in the hermetically bonded state for two days and then removed from the nail. A part of the tip of the nail was cut and measured for the concentration of the terbinafine hydrochloride.

[2] = Terbinafine hydrochloride content in the nail tip after oral administration of a terbinafine hydrochloride tablet
Protocol: As conventionally used as a treatment method for tinea unguium, a terbinafine hydrochloride tablet was orally administered once a day continuously for 4 weeks. A part of the tip of the nail was then cut and measured for the concentration of the terbinafine hydrochloride in the same manner as in Examples 1 to 3.
In Comparative Example 1, the measurement of terbinafine hydrochloride was carried out after administration period of 4 weeks, because the terbinafine hydrochloride was not detected after administration of 2 days.

[3] = Terbinafine hydrochloride content in the nail after applying a 1% external medicine to the nail surface; details: 1% external medicine applied to nail surface twice a day for 4 weeks
Source text: Incidentally, a 1% terbinafine hydrochloride external medicine was applied to a surface of a nail twice a day continuously for 4 weeks. A part of the tip of the nail was then cut and measured for the concentration of the terbinafine hydrochloride.

## CN(C/C=C/C#CC(C)(C)C)Cc1cccc2ccccc12 [terbinafine hydrochloride]
[1]; Example 1: first-type applicator, ambient pressure (1.0 atm)
  terbinafine hydrochloride content in the nail: 27.0 ng/mg and 40.8 ng/mg and 67.6 ng/mg and 42.9 ng/mg and 52.0 ng/mg and 32.4 ng/mg
[1]; Example 2: second-type applicator, inside pressure 1.3 atm
  terbinafine hydrochloride content in the nail: 43.7 ng/mg and 66.1 ng/mg and 88.8 ng/mg and 68.6 ng/mg and 104.9 ng/mg and 38.9 ng/mg
[1]; Example 3: third-type applicator, inside pressure 1.3 atm
  terbinafine hydrochloride content in the nail: 41.5 ng/mg and 67.2 ng/mg and 86.3 ng/mg and 70.2 ng/mg and 75.8 ng/mg and 42.3 ng/mg
[1]; Example 1: first-type applicator, 1.0 atm
  concentration at 2 days: 43800 ng/g
[1]; Example 2: second-type applicator, 1.3 atm
  concentration at 2 days: 68500 ng/g
[1]; Example 3: third-type applicator, 1.3 atm
  concentration at 2 days: 63900 ng/g
[2]; Comparative Example 1: tablet orally once a day for 4 weeks, nail tip, individual samples No. 1-6, hydrochloride
  terbinafine hydrochloride content in the nail: 0.24 ng/mg and 0.38 ng/mg and 0.15 ng/mg and 0.28 ng/mg and 0.45 ng/mg and 0.11 ng/mg
[2]; human, nail (tip), po, Comparative Example 1: tablet orally once a day for 4 weeks, average of No. 1-6
  concentration at 4 weeks: 380 ng/g
[2]; oral tablet, after administration of 2 days
  terbinafine hydrochloride detected in the nail: not detected
[3]
  penetration of terbinafine hydrochloride into a surface region of the nail: slightly penetrate
  terbinafine hydrochloride detected in a deep part of the nail: Almost no terbinafine hydrochloride was detected
